We go through 21 compounds from patent publication US9420793B2, “Antiparasitic compounds” (Avista Pharma Solutions, priority 2015, dated 2016).

Assay [1] concerns Dirofilaria immitis microfilariae. Description: Dirofilaria immitis microfilariae motility assay. Particulars: 72 h, read-out: concentration at which active, microfilariae motility.
For the next assay, the system named is Aedes aegypti. Description: In vitro evaluation of ingestion activity against mosquitoes. Particulars: at 20 hours, compound in bovine blood, read-out: concentration at which active, mosquito ingestion. How it is done: In Vitro Evaluation of Ingestion Activity Against Mosquitoes (Aedes aegypti)
A solution of test compounds is added to bovine blood contained in a feeding chamber to reach the desired final concentration. Blood spiked with DMSO is prepared to serve as control. Adult female mosquitoes are introduced at the bottom of the chamber and allowed to feed on blood mixtures containing DMSO or test compounds for 30 minutes. Fully engorged mosquitoes are sorted into clean chambers after the blood meal and monitored for survival over 3 days. Replicates containing 10 mosquitoes are performed with each test compound concentration and results calculated as % mortality at specific time points.

Another assay has as its system R. sanguineus. Description: In vitro tick contact assay, comparison with standards.
The next assay relates to Ctenocephalides felis. To be noted: 24 h; fleas.

Some results are limits rather than exact numbers.

Description for Ctenocephalides felis: In Vitro Evaluation of Ingestion Activity Against Fleas (Ctenocephalides Felis)
For flea ingestion tests, an aliquot of each compound stock was added to organic bovine blood contained in an artificial feeding container, with a final DMSO concentration of 0.5%. Ten newly emerged unfed fleas, Ctenocephalides felis, from a laboratory colony, 0-7 days old, were aspirated into a chamber and exposed to the appropriate feeding container and held in a controlled environment at 35° C. Fleas were evaluated for % mortality at 24, 48, and 72 hours post infestation. Fleas showing normal movement and/or jumping ability were considered viable and those showing no movement after tapping the vials were scored as dead. The compound+blood mixture was replaced every 24 hours.
Description for R. sanguineus: A solution of the test compounds was used to coat the inner wall of glass vials and to treat two filter papers. Once dried, one filter paper was placed in the cap of the vial and the other in the bottom of the vial. Each treated vial was infested with 10 ticks. Contact of the ticks with residues was induced by holding the vials in a controlled environment and assessment was performed at 12, 24 and 48 hours after application in comparison with untreated glass vials and solvent-treated glass vials. Compounds were tested in duplicate and two separate trials (n=4).

With `CC(C)(C)CCN1CC2(C1)OCc1cc(C3=NSC(c4cc(Cl)c(F)c(Cl)c4)(C(F)(F)F)C3)ccc12` (stereo not shown) [Compound 21, 6-[5-(3,5-dichloro-4-fluoro-phenyl)-5-(trifluoromethyl)-4H-isothiazol-3-yl]-1′-(3,3-dimethylbutyl)spiro[1H-isobenzofuran-3,3′-azetidine]], in assay [1], the minimal effective concentration is less than 10 µM. As to `CCNC(=O)N1CC2(C1)OCc1cc(C3=NSC(c4cc(Cl)c(F)c(Cl)c4)(C(F)(F)F)C3)ccc12` (stereo not shown) [Compound 16, 6-[5-(3,5-dichloro-4-fluoro-phenyl)-5-(trifluoromethyl)-4H-isothiazol-3-yl]-N-ethyl-spiro[1H-isobenzofuran-3,3′-azetidine]-1′-carboxamide], the minimal effective concentration in assay [1] was less than 10 µM; in the assay with Aedes aegypti it was less than 1 µg/mL. For `COCC(=O)N1CC2(C1)OCc1cc(C3=NSC(c4cc(Cl)c(F)c(Cl)c4)(C(F)(F)F)C3)ccc12` (stereo not shown) [Compound 22, 1-[6-[5-(3,5-dichloro-4-fluoro-phenyl)-5-(trifluoromethyl)-4H-isothiazol-3-yl]spiro[1H-isobenzofuran-3,3′-azetidine]-1′-yl]-2-methoxy-ethanone], the minimal effective concentration in assay [1] is less than 10 µM. Same read-out and setting: under `CC(C)C(=O)N1CC2(C1)OCc1cc(C3=NSC(c4cc(Cl)c(F)c(Cl)c4)(C(F)(F)F)C3)ccc12` (stereo not shown) [Compound 25, 1-[6-[5-(3,5-dichloro-4-fluoro-phenyl)-5-(trifluoromethyl)-4H-isothiazol-3-yl]spiro[1H-isobenzofuran-3,3′-azetidine]-1′-yl]-2-methyl-propan-1-one] stands less than 10 µM. As for `N#CCC(=O)N1CC2(C1)OCc1cc(C3=NSC(c4cc(Cl)c(F)c(Cl)c4)(C(F)(F)F)C3)ccc12` (stereo not shown) [Compound 29, 3-[6-[5-(3,5-dichloro-4-fluoro-phenyl)-5-(trifluoromethyl)-4H-isothiazol-3-yl]spiro[1H-isobenzofuran-3,3′-azetidine]-1′-yl]-3-oxo-propanenitrile], the minimal effective concentration in assay [1] was less than 10 µM; in the assay with Aedes aegypti, less than 1 µg/mL. For `CC(C)OCC(=O)N1CC2(C1)OCc1cc(C3=NSC(c4cc(Cl)c(F)c(Cl)c4)(C(F)(F)F)C3)ccc12` (stereo not shown) [Compound 23, 1-[6-[5-(3,5-dichloro-4-fluoro-phenyl)-5-(trifluoromethyl)-4H-isothiazol-3-yl]spiro[1H-isobenzofuran-3,3′-azetidine]-1′-yl]-2-isopropoxy-ethanone], the minimal effective concentration in assay [1] is less than 10 µM. Turning to `CNC(=O)N1CC2(C1)OCc1cc(C3=NSC(c4cc(Cl)c(F)c(Cl)c4)(C(F)(F)F)C3)ccc12` (stereo not shown) [Compound 41, 6-[5-(3,5-dichloro-4-fluoro-phenyl)-5-(trifluoromethyl)-4H-isothiazol-3-yl]-N-methyl-spiro[1H-isobenzofuran-3,3′-azetidine]-1′-carboxamide], the minimal effective concentration was less than 10 µM in assay [1] and less than 1 µg/mL in the assay on Aedes aegypti. The matching figures for `O=C(Nc1ccccc1)N1CC2(C1)OCc1cc(C3=NSC(c4cc(Cl)c(F)c(Cl)c4)(C(F)(F)F)C3)ccc12` (stereo not shown) [Compound 17, 6-[5-(3,5-dichloro-4-fluoro-phenyl)-5-(trifluoromethyl)-4H-isothiazol-3-yl]-N-phenyl-spiro[1H-isobenzofuran-3,3′-azetidine]-1′-carboxamide]: less than 10 µM and less than 1 µg/mL. Take `CCCCCC(=O)N1CC2(C1)OCc1cc(C3=NSC(c4cc(Cl)c(F)c(Cl)c4)(C(F)(F)F)C3)ccc12` (stereo not shown) [Compound 36, 1-[6-[5-(3,5-dichloro-4-fluoro-phenyl)-5-(trifluoromethyl)-4H-isothiazol-3-yl]spiro[1H-isobenzofuran-3,3′-azetidine]-1′-yl]hexan-1-one]: in assay [1], the minimal effective concentration was less than 10 µM. `CCCCN1CC2(C1)OCc1cc(C3=NSC(c4cc(Cl)c(F)c(Cl)c4)(C(F)(F)F)C3)ccc12` (stereo not shown) [Compound 20, 1′-butyl-6-[5-(3,5-dichloro-4-fluoro-phenyl)-5-(trifluoromethyl)-4H-isothiazol-3-yl]spiro[1H-isobenzofuran-3,3′-azetidine]]: the minimal effective concentration in assay [1] was less than 10 µM; with Aedes aegypti it was less than 1 µg/mL. In the case of `O=C(c1ccc(N2CCOCC2)cc1)N1CC2(C1)OCc1cc(C3=NSC(c4cc(Cl)c(F)c(Cl)c4)(C(F)(F)F)C3)ccc12` (stereo not shown) [Compound 13, [6-[5-(3,5-dichloro-4-fluoro-phenyl)-5-(trifluoromethyl)-4H-isothiazol-3-yl]spiro[1H-isobenzofuran-3,3′-azetidine]-1′-yl]-(4-morpholinophenyl)methanone], the minimal effective concentration in assay [1] is less than 10 µM.

For `O=C(N1CC2(C1)OCc1cc(C3=NSC(c4cc(Cl)c(F)c(Cl)c4)(C(F)(F)F)C3)ccc12)C(F)(F)C(F)(F)F` (stereo not shown) [Compound 30, 1-[6-[5-(3,5-dichloro-4-fluoro-phenyl)-5-(trifluoromethyl)-4H-isothiazol-3-yl]spiro[1H-isobenzofuran-3,3′-azetidine]-1′-yl]-2,2,3,3,3-pentafluoro-propan-1-one], the minimal effective concentration in assay [1] was less than 10 µM; with Aedes aegypti, less than 1 µg/mL.

Regarding `CC(=O)N1CC2(C1)OCc1cc(C3=NSC(c4cc(Cl)c(F)c(Cl)c4)(C(F)(F)F)C3)ccc12` (stereo not shown) [Compound 27, 1-[6-[5-(3,5-dichloro-4-fluoro-phenyl)-5-(trifluoromethyl)-4H-isothiazol-3-yl]spiro[1H-isobenzofuran-3,3′-azetidine]-1′-yl]ethanone], the minimal effective concentration in assay [1] is less than 10 µM. The same measure, in the same setting: under `CCOCC(=O)N1CC2(C1)OCc1cc(C3=NSC(c4cc(Cl)c(F)c(Cl)c4)(C(F)(F)F)C3)ccc12` (stereo not shown) [Compound 24, 1-[6-[5-(3,5-dichloro-4-fluoro-phenyl)-5-(trifluoromethyl)-4H-isothiazol-3-yl]spiro[1H-isobenzofuran-3,3′-azetidine]-1′-yl]-2-ethoxy-ethanone] stands less than 10 µM. Regarding `CCCCC(=O)N1CC2(C1)OCc1cc(C3=NSC(c4cc(Cl)c(F)c(Cl)c4)(C(F)(F)F)C3)ccc12` (stereo not shown) [Compound 35, 1-[6-[5-(3,5-dichloro-4-fluoro-phenyl)-5-(trifluoromethyl)-4H-isothiazol-3-yl]spiro[1H-isobenzofuran-3,3′-azetidine]-1′-yl]pentan-1-one], the results for the minimal effective concentration (in assay [1]; with Aedes aegypti) were less than 10 µM and less than 1 µg/mL, respectively. The matching figures for `O=C(C1CCOCC1)N1CC2(C1)OCc1cc(C3=NSC(c4cc(Cl)c(F)c(Cl)c4)(C(F)(F)F)C3)ccc12` (stereo not shown) [Compound 19, [6-[5-(3,5-dichloro-4-fluoro-phenyl)-5-(trifluoromethyl)-4H-isothiazol-3-yl]spiro[1H-isobenzofuran-3,3′-azetidine]-1′-yl]-tetrahydropyran-4-yl-methanone]: less than 10 µM and less than 1 µg/mL. `CCC(=O)N1CC2(C1)OCc1cc(C3=NSC(c4cc(Cl)c(F)c(Cl)c4)(C(F)(F)F)C3)ccc12` (stereo not shown) [Compound 26, 1-[6-[5-(3,5-dichloro-4-fluoro-phenyl)-5-(trifluoromethyl)-4H-isothiazol-3-yl]spiro[1H-isobenzofuran-3,3′-azetidine]-1′-yl]propan-1-one]: the minimal effective concentration in assay [1] is less than 10 µM.

`O=C(CCC(F)(F)F)N1CC2(C1)OCc1cc(C3=NSC(c4cc(Cl)c(F)c(Cl)c4)(C(F)(F)F)C3)ccc12` (stereo not shown) [Compound 10, 1-[6-[5-(3,5-dichloro-4-fluoro-phenyl)-5-(trifluoromethyl)-4H-isothiazol-3-yl]spiro[1H-isobenzofuran-3,3′-azetidine]-1′-yl]-4,4,4-trifluoro-butan-1-one]: the minimal effective concentration with Aedes aegypti is less than 1 µg/mL.

For `CS(=O)(=O)CC(=O)N1CC2(C1)OCc1cc(C3=NO[C@@](c4cc(Cl)c(F)c(Cl)c4)(C(F)(F)F)C3)ccc12` (racemic) [(+/−) Sarolaner, Sarolaner], the “R. sanguineus Contact EC50” value in the assay with R. sanguineus (24 h) was found to be 37.8 ± 12.2 ppm; with R. sanguineus (48 h), 12.7 ± 0.1 ppm. Further, in the assay with Ctenocephalides felis, the “Ingestion EC50” value worked out at 1.23 ± 0.11 ppm. For the compound `CC(F)(F)C(=O)N1CC2(C1)OCc1cc(C3=NSC(c4cc(Cl)c(F)c(Cl)c4)(C(F)(F)F)C3)ccc12` (stereo not shown) [Compound 31, 1-[6-[5-(3,5-dichloro-4-fluoro-phenyl)-5-(trifluoromethyl)-4H-isothiazol-3-yl]spiro[1H-isobenzofuran-3,3′-azetidine]-1′-yl]-2,2-difluoro-propan-1-one], the minimal effective concentration in assay [1] was less than 10 µM. On the same count and under the same terms, for `Fc1c(Cl)cc(C2(C(F)(F)F)CC(c3ccc4c(c3)COC43CN(c4ncccn4)C3)=NS2)cc1Cl` (stereo not shown) [Compound 40, 6-[5-(3,5-dichloro-4-fluoro-phenyl)-5-(trifluoromethyl)-4H-isothiazol-3-yl]-1′-pyrimidin-2-yl-spiro[1H-isobenzofuran-3,3′-azetidine]] the value was less than 10 µM.
